Test results: patent publication US7772271B2 (priority 2004, dated 2010)

melting point | Compound
216 to 217 °C | CCCS(=O)(=O)Nc1ccc(-c2c(C#N)c3ccc(Oc4ncccc4C(F)(F)F)cc3n2C2CC2)cc1 [Compound 2935]
209 to 210 °C | CCCS(=O)(=O)Nc1ccc(-c2c(C#N)c3ccc(Oc4cccnc4Cl)cc3n2C2CC2)cc1 [Compound 2936]
183 to 184 °C | CCCS(=O)(=O)Nc1ccc(-c2c(C#N)c3ccc(Oc4nccnc4Cl)cc3n2C2CC2)cc1 [Compound 2937]
191 to 193 °C | CCCS(=O)(=O)Nc1ccc(-c2c(C#N)c3ccc(Oc4nccnc4C)cc3n2C2CC2)cc1 [Compound 2938]
239 to 241 °C | CCCS(=O)(=O)Nc1ccc(-c2c(C#N)c3ccc(Oc4nccc(C)n4)cc3n2C2CC2)cc1 [Compound 2939]
222 to 227 °C | CCn1c(-c2ccc(N3CCCS3(=O)=O)cc2)c(C#N)c2ccc(OC3CCOCC3)cc21 [Compound 2940]
219 to 224 °C | N#Cc1c(-c2ccc(N3CCCS3(=O)=O)cc2)n(C2CC2)c2cc(OC3CCOCC3)ccc12 [Compound 2941]
191 to 193 °C | CC(C)n1c(-c2ccc(NC(=O)O[C@H](C)C3CC3)cc2)c(C#N)c2ccc(N3CCOCC3)cc21 [Compound 2942]
215 to 217 °C | CCCS(=O)(=O)Nc1ccc(-c2c(C#N)c3ccc(Oc4ncccc4Cl)cc3n2C2CC2)cc1 [Compound 2943]
173 to 175 °C | CCCS(=O)(=O)Nc1ccc(-c2c(C#N)c3ccc(Oc4cccnc4Cl)cc3n2C2CCC2)cc1 [Compound 2945]
144 to 146 °C | CC(C)NS(=O)(=O)Nc1ccc(-c2c(C#N)c3ccc(Oc4nccnc4Cl)cc3n2C2CCC2)cc1 [Compound 2946]
130 °C (dec.) | CC(C)NS(=O)(=O)Nc1ccc(-c2c(C#N)c3ccc(Oc4nccnc4Cl)cc3n2C2CC2)cc1 [Compound 2947]
206 to 208 °C | N#Cc1c(-c2ccc(NS(=O)(=O)NCC3CC3)cc2)n(C2CCC2)c2cc(Oc3nccnc3Cl)ccc12 [Compound 2948]
181 to 183 °C | N#Cc1c(-c2ccc(NS(=O)(=O)NCC3CC3)cc2)n(C2CC2)c2cc(Oc3nccnc3Cl)ccc12 [Compound 2949]
196 to 197 °C | CC(C)Nc1ccc(-c2c(C#N)c3ccc(Oc4ncccc4Cl)cc3n2C2CC2)cc1 [Compound 2951]
148 to 150 °C | CC(C)n1c(-c2ccc(NC(=O)O[C@H](C)C(F)(F)F)cc2)c(C#N)c2ccc(N3CCOCC3)cc21 [Compound 2952]
231 to 234 °C | CC(C)n1c(-c2ccc(NC(=O)O[C@H](C)c3ccc(F)cc3)cc2)c(C#N)c2ccc(N3CCOCC3)cc21 [Compound 2953]
241 to 244 °C | CC(C)OC(=O)Nc1ccc(-c2c(C#N)c3ccc(N4CCCC4)cc3n2C2CCC2)cc1 [Compound 2954]
229 to 234 °C | CCCS(=O)(=O)Nc1ccc(-c2c(C#N)c3ccc(N4CCCC4)cc3n2C2CCC2)cc1 [Compound 2955]
198 to 200 °C | CCCS(=O)(=O)Nc1ccc(-c2c(C#N)c3ccc(Oc4ncccc4F)cc3n2C2CC2)cc1 [Compound 2956]
203 to 204 °C | CS(=O)(=O)CCCOc1ccc2c(C#N)c(-c3ccc(NS(=O)(=O)C4CC4)cc3)n(C3CCC3)c2c1 [Compound 2957]
206 to 208 °C | C[C@@H](OC(=O)Nc1ccc(-c2c(C#N)c3ccc(OCCCS(C)(=O)=O)cc3n2C2CCC2)cc1)C(F)(F)F [Compound 2958]
220 to 222 °C | C[C@@H](OC(=O)Nc1ccc(-c2c(C#N)c3ccc(-c4ccccn4)cc3n2C2CCC2)cc1)C(F)(F)F [Compound 2959]
258 to 260 °C | N#Cc1c(-c2ccc(NS(=O)(=O)C3CC3)cc2)n(C2CCC2)c2cc(N3CCCC3)ccc12 [Compound 2960]
246 to 249 °C | C[C@@H](OC(=O)Nc1ccc(-c2c(C#N)c3ccc(N4CCCC4)cc3n2C2CCC2)cc1)C(F)(F)F [Compound 2961]
244 to 250 °C | CCS(=O)(=O)Nc1ccc(-c2c(C#N)c3ccc(N4CCCC4)cc3n2C2CCC2)cc1 [Compound 2962]
